Key:
[1] = test system: human LT-HSPCs administered to cKit mice; experiment: Erythroid cell enucleation in mouse bone marrow; type: in vivo; conditions: bone marrow 16 weeks; vs cells treated with RNP-only or AAV-only; FIG. 28
Procedure: The functionality of the hematopoietic compartment in recipient mice was evaluated by measuring erythroid cell enucleation in bone marrow collected at 16 weeks post-engraftment. Mammalian erythrocytes extrude their nucleus prior to entering circulation. Human CD34-expressing LT-HSPCs are expected to differentiate into erythrocytes following engraftment, however the efficiency of enucleation can be low. Assessment of erythroid cell enucleation provides a measure of the ability of edited CD34 expressing cells to differentiate into erythroid cells compared to the unedited controls (i.e., ability to differentiate into functional cell types). Percent enucleation was compared for LT-HSPCs gene edited with Cas9/gRNA RNP and AAV given pre-EP or post-EP. […] Additionally, levels of enucleation were compared for LT-HSPCs gene edited with RNP+AAV in the presence of i53 or Nu7441.

hTERT RPE-1 cells = experiment: HDR insertion of AAV-delivered GFP donor into AAVS1 locus (GFP fluorescence); type: cell-based, human; conditions: AAV (DJ serotype) GFP donor and mRNA encoding i53, over AAV alone, FIG. 7
Procedure: RPE1 cells were lipofected with RNP comprised of Cas9 protein and gRNA targeting the AAVS1 locus (target sequence shown in SEQ ID NO: 3; spacer sequence shown in SEQ ID NO: 4). Cells were edited with 1 μg Cas9 and 1 μg gRNA. Cells were infected with AAV containing homology donor DNA encoding GFP (DJ serotype) as well as mRNA encoding i53 (mRNA ORF shown in SEQ ID NO: 69). […] HDR efficiency was determined by measuring the level of GFP fluorescence in the cells following gene-editing.

CD34-expressing LT-HSPCs = experiment: Indel formation at HBB locus by TIDE analysis; type: cell-based, human
Procedure: Editing efficiency at the HBB locus was evaluated by measuring indel formation by TIDE analysis. […] This group had 1.7-fold reduction in INDEL frequency relative to cells treated with RNP+AAV,

[2] = test system: human LT-HSPCs administered to cKit mice; experiment: Indel formation at HBB locus in mouse bone marrow by TIDE analysis; type: in vivo; conditions: 16 weeks post engraftment
Procedure: (§1) NHEJ editing of the HBB locus was also evaluated in mouse bone marrow collected at 16 weeks post engraftment. Indel formation at the site of Cas9/gRNA cutting was evaluated by TIDE analysis in bone marrow samples and compared to indel formation of LT-HSPCs prior to administration.
as §1, with “administration. Regardless of the method used to edit the LT-HSPCs, indel formation was similar at 16 weeks post-engraftment to the level present prior to administration (FIG. 27).” for “administration.”

[3] = test system: wild-type CD34-expressing LT-HSPCs; experiment: HDR and INDEL frequency at HBB locus with AAV.323 donor by NGS; type: cell-based, human
Source text: The AAV-encoded homology donor used for correction is referred to as “AAV.323” and is identified by sequence in Table 8.

[4] = test system: CD34-expressing LT-HSPCs derived from human patients with sickle cell disease; experiment: Hemoglobin expression (HbF, HbA, HbS) by HPLC; type: cell-based
Procedure: Hemoglobin expressed by edited cells that were differentiated to erythrocytes was assessed. Hemoglobin A (HbA) is composed of 2 alpha-globin and 2 beta-globin units and is the dominant hemoglobin in adult humans. In human carriers of the HBB E6V mutation, a high proportion of total hemoglobin is hemoglobin S (HbS), which is composed of 2 alpha-globin units and 2 beta-globin units with E6V.
(§2) Briefly, on day 18 post-editing, 1×10^6 cells were harvested, centrifuged, and washed with PBS. The cells were prepared for HPLC analysis. Hemoglobin variants were quantified in cell samples using reverse-phase HPLC chromatography and gradient elution. […] Thus, high levels of HDR achieved with i53 contribute to normalization of hemoglobin expression products.

[5] = test system: CD34-expressing LT-HSPCs derived from human patients with sickle cell disease; experiment: Erythrocyte functionality: cell-surface markers and enucleation by flow cytometry; type: cell-based; conditions: day 18 post editing
Procedure: The ability of edited cells to differentiate to functional erythrocytes was assessed by determining expression of erythrocyte-associated cell surface markers and enucleation using flow cytometry on day 18 post editing.
Briefly, 4×10^5 cells were obtained, and half were stained for erythrocyte cell-surface markers and half were used for detection of enucleation. For staining cell-surface markers, the cells were incubated in PBS containing 1% human serum albumin (PBS-A) and an antibody cocktail of anti-CD233 (BRIC6-Band3)-FITC, anti-CD71-PE, anti-CD235a(GlyA)-PE/Cy7, and anti-CD49d (a4)-VioBlue. For detection of enucleation, 2 drops of NucRed nuclear staining reagent was added to 1 mL PBS-A, and 100 μL was added to plated cells. Following incubation, both cell samples were labeled with Sytox Blue solution (1:1000 dilution in PBS-A) for live/dead analysis. Samples were then assessed by flow cytometry.

patient-derived PBMCs [6] = experiment: SCD gene correction by HDR and INDEL frequency by NGS in patient-derived PBMCs; type: cell-based, human
Procedure: It was further evaluated if editing of patient-derived PBMCs in the presence of i53 would yield high levels of correction of the HBB gene. […] The PBMCs were expanded in StemSpan SFEM II (1×)+StemSpan CC100 (1×)+Dexamethasone 1 μM+hEPO 2 IU/mL at 37° C. under normoxic conditions (20% O2 concentration). The cells were edited following five days of in vitro culture. […] On day 8, the cells were transferred to Phase 1 media, and differentiation to erythrocytes was performed through day 18 as described above. Efficiency of HDR at the HBB gene locus was evaluated on day 12 using the NGS assay described in Example 4. Also evaluated was the frequency of INDELs at the R02 cut-site as measured by NGS.

patient-derived PBMCs [7] = experiment: Hemoglobin expression by HPLC in edited patient-derived PBMCs; type: cell-based, human; conditions: FIG. 36
Procedure: as §2
Hemoglobin expression was measured by HPLC analysis for edited PBMCs as described above.

[8] = day 18 post-editing, compared to mock EP control cells, FIG. 34A
[9] = compared to mock EP control cells

| Compound | levels of erythroid cell enucleation [1] | HDR efficiency (hTERT RPE-1 cells) | risk of indel formation within the target gene locus (CD34-expressing LT-HSPCs; CD34+ HSCs contacted with 53BP1 polypeptide inhibitor, summary statement) | level of indel formation (CD34-expressing LT-HSPCs; RNP+AAV in the presence of i53, FIG. 11) | level of indel formation in bone marrow ([2]; Example 5, FIG. 20) | level of indel formation in bone marrow ([2]; Example 7, FIG. 27) | fold increase in HDR efficiency for incorporation of the AAV.323 gene-edit ([3]; 1 μg i53 mRNA, day 2 post-editing, compared to R02+AAV.323 only, FIG. 30A) | frequency of INDELs at the R02 cut site ([3]; i53 vs R02+AAV.323 only, combination vs i53 only, FIG. 30B) | HbA levels [4, 8] | HbS levels [4, 8] | decrease in HbS levels ([4]; relative to mock EP control cells, FIG. 34B) [%] | cell population having enucleation ([5]; comparable to mock EP control cells) [%] | cell population CD71−GlyA+ erythrocytes ([5]; similar to mock EP control cells) [%] | frequency of INDELs (patient-derived PBMCs [6]; compared to control cells, FIG. 35B) | frequency of correction of the HBB gene by HDR repair (patient-derived PBMCs [6]; day 12, FIG. 35A) | level of HDR repair and frequency of INDELs in HBB, PBMCs vs CD34-expressing LT-HSPCs (patient-derived PBMCs [6]; edited in the presence of i53) | expression of HbA (patient-derived PBMCs [7]; [9]) | expression of HbS (patient-derived PBMCs [7]; [9]) | ratio of HbS to HbA, PBMCs vs CD34-expressing LT-HSPCs (patient-derived PBMCs [7]; edited in the presence of i53) |
| --- | --- | --- | --- | --- | --- | --- | --- | --- | --- | --- | --- | --- | --- | --- | --- | --- | --- | --- | --- |
| O=c1cc(N2CCOCC2)oc2c(-c3cccc4c3sc3ccccc34)cccc12 [Nu7441] | similar | – | – | – | – | – | – | – | – | – | – | – | – | – | – | – | – | – | – |
| i53: polypeptide inhibitor of 53BP1 (SEQ ID NO: 70), introduced as an mRNA-encoded protein (ORF SEQ ID NO: 69) | similar | increase | less than 30% | lowest | lowest | lowest | approximately 1.5 fold | decreased | increased | dramatically reduced | 90 | > 30 | > 30 | reduced | approximately 60% | comparable | increased | significant reduction | comparable |

Source: patent US20210008161A1, “METHODS AND COMPOSITIONS FOR IMPROVED HOMOLOGY DIRECTED REPAIR” (CRISPR THERAPEUTICS AG, priority 2019, published 2021)
